Measured values taken from US8138189B2, “Substituted benzene compounds as modulators of the glucocorticoid receptor” (Hoffman-La Roche Inc., priority 2009, dated 2012).

Target: T1, full length human recombinant glucocorticoid receptor (Homo sapiens, UniProt P04150)
T1 construct: partially purified full length human recombinant glucocorticoid receptor; purchased Panvera/Invitrogen PV4302
T1 sequence (P04150 1-777): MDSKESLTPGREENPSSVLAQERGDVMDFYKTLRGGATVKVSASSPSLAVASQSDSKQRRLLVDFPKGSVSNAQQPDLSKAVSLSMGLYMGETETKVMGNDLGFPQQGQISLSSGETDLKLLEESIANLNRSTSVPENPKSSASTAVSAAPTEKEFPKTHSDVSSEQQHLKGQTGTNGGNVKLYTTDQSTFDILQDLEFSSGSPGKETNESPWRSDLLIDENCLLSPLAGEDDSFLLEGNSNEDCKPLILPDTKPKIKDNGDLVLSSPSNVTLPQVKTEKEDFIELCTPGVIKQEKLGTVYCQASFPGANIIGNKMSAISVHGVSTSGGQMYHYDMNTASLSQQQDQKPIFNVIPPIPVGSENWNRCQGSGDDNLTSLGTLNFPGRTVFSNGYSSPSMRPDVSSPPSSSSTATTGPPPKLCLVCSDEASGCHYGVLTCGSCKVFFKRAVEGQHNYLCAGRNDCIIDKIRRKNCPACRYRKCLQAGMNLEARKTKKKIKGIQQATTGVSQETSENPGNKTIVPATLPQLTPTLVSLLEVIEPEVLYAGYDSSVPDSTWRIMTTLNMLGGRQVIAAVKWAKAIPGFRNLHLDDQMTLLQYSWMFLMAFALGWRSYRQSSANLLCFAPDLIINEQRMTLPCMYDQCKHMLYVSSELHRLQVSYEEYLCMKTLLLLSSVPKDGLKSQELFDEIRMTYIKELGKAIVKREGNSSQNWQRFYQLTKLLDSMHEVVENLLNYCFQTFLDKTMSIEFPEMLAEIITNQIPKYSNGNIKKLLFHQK
Assay: Glucocorticoid Receptor Binding Assay (fluorescence polarization competitor assay, Fluormone GS Far Red tracer)
Procedure, shortened: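 Partially purified full-length recombinant human GR with a stabilizing coactivator peptide was incubated with Fluormone GS Far Red tracer and serially diluted compound for 3 h at 22 °C in the dark, pH 7.4. Fluorescence polarization was read at 610-660 nm. IC50 came from sigmoidal fitting, and Ki from Cheng-Prusoff.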

| Structure (SMILES) | Ki [nM] |
| --- | --- |
| COC(=O)c1ccc(N(C)C(=O)c2ccc([C@@H](C)[C@@](O)(c3ccnc(Cl)c3)C(F)(F)F)c(Cl)c2)cc1 (relative stereo) [Example 28, 4-({3-Chloro-4-[-2-(2-chloro-pyridin-4-yl)-3,3,3-trifluoro-2-hydroxy-1-methyl-propyl]-benzoyl}-methyl-amino)-benzoic acid methyl ester] | 114 |
| C[C@H](c1cc(Oc2cnc(C(=O)O)cn2)ccc1Cl)[C@@](O)(c1ccnc(Cl)c1)C(F)(F)F (stereo in doubt) [Example 137, 5-{4-Chloro-3-[2-(2-chloro-pyridin-4-yl)-3,3,3-trifluoro-2-hydroxy-1-methyl-propyl]-phenoxy}-pyrazine-2-carboxylic acid] | 1580 |
| C[C@H](c1ccc(Oc2ncc(C(=O)O)cc2Cl)cc1Cl)[C@@](O)(c1ccc(C#N)n1C)C(F)(F)F (stereo in doubt) [Example 233, 5-Chloro-6-{3-chloro-4-[2-(5-cyano-1-methyl-1H-pyrrol-2-yl)-3,3,3-trifluoro-2-hydroxy-1-methyl-propyl]-phenoxy}-nicotinic acid] | 3.9 |
| CC(c1ccc(Oc2ccccc2C(=O)O)cc1Cl)C(O)(c1ccnc(Cl)c1)C(F)(F)F (stereo not drawn) [Example 84, 2-{3-Chloro-4-[2-(2-chloro-pyridin-4-yl)-3,3,3-trifluoro-2-hydroxy-1-methyl-propyl]-phenoxy}-benzoic acid] | 35.5 |
| COc1cc(C(=O)O)ccc1COc1ccc([C@@H](C)[C@@](O)(c2ccnc(Cl)c2)C(F)(F)F)c(Cl)c1 (stereo in doubt) [Example 22, 4-{3-Chloro-4-[2-(2-chloro-pyridin-4-yl)-3,3,3-trifluoro-2-hydroxy-1-methyl-propyl]-phenoxymethyl}-3-methoxy-benzoic acid] | 10.7 |
| C[C@H](c1ccc(Oc2ccc(C(=O)O)cn2)cc1Cl)[C@@](O)(c1ccc(C#N)n1C)C(F)(F)F (stereo in doubt) [Example 236, 6-{3-Chloro-4-[2-(5-cyano-1-methyl-1H-pyrrol-2-yl)-3,3,3-trifluoro-2-hydroxy-1-methyl-propyl]-phenoxy}-nicotinic acid] | 22.3 |
| C[C@@H](c1ccc(-c2ccc(CC(=O)O)cc2)cc1Cl)[C@](O)(c1ccc(=O)n(C)c1)C(F)(F)F (relative stereo) [Example 171, {3′-Chloro-4′-[3,3,3-trifluoro-2-hydroxy-1-methyl-2-(1-methyl-6-oxo-1,6-dihydro-pyridin-3-yl)-propyl]-biphenyl-4-yl}-acetic acid] | 79.3 |
| CCOC(=O)c1ccc(COc2ccc([C@@H](C)[C@@](O)(c3ccnc(Cl)c3)C(F)(F)F)c(Cl)c2)cc1 (stereo in doubt) [Example 19, 4-{3-Chloro-4-[2-(2-chloro-pyridin-4-yl)-3,3,3-trifluoro-2-hydroxy-1-methyl-propyl]-phenoxymethyl}-benzoic acid ethyl ester] | 45.9 |
| C[C@H](c1ccc(-c2ccc(CCC(=O)O)cc2)cc1Cl)[C@@](O)(c1ccnc(Cl)c1)C(F)(F)F (stereo in doubt) [Example 55, 3-{3′-Chloro-4′-[2-(2-chloro-pyridin-4-yl)-3,3,3-trifluoro-2-hydroxy-1-methyl-propyl]-biphenyl-4-yl}-propionic acid] | 29.4 |
| C[C@H](c1ccc(C(=O)Nc2ccc(CC(=O)O)cc2)cc1Cl)[C@@](O)(c1ccnc(Cl)c1)C(F)(F)F (stereo in doubt) [Example 39, (4-{3-Chloro-4-[2-(2-chloro-pyridin-4-yl)-3,3,3-trifluoro-2-hydroxy-1-methyl-propyl]-benzoylamino}-phenyl)-acetic acid] | 274 |
| CCOC(=O)c1ccc(COc2ccc(C(C)C(O)(c3ccncc3)C(F)(F)F)c(Cl)c2)cc1 (stereo not drawn) [Example 106, 4-[3-Chloro-4-(3,3,3-trifluoro-2-hydroxy-1-methyl-2-pyridin-4-yl-propyl)-phenoxymethyl]-benzoic acid ethyl ester] | 47.1 |
| C[C@@H](c1ccc(-c2ccc(C(=O)O)c(F)c2)cc1Cl)[C@](O)(c1ccc(=O)n(C)c1)C(F)(F)F [Example 167, 3′-Chloro-3-fluoro-4′-[3,3,3-trifluoro-2-hydroxy-1-methyl-2-(1-methyl-6-oxo-1,6-dihydro-pyridin-3-yl)-propyl]-propylphiphenyl-4-carboxylic acid] | 45.9 |
| C[C@@H](c1ccc(OC(C)(C)C(=O)O)c(Cl)c1Cl)[C@](O)(c1ccc(=O)n(C)c1)C(F)(F)F (stereo in doubt) [Example 240, 2-{2,3-Dichloro-4-[3,3,3-trifluoro-2-hydroxy-1-methyl-2-(1-methyl-6-oxo-1,6-dihydro-pyridin-3-yl)-propyl]-phenoxy}-2-methyl-propionic acid] | 82.2 |
| COC(=O)c1ccc(COc2ccc(C(C)C(O)(c3ccnc(Cl)c3)C(F)(F)F)c(Cl)c2)nc1 (stereo not drawn) [Example 110, 6-{3-Chloro-4-[2-(2-chloro-pyridin-4-yl)-3,3,3-trifluoro-2-hydroxy-1-methyl-propyl]-phenoxymethyl}-nicotinic acid methyl ester] | 6.4 |
| COC(=O)c1ccc(CNC(=O)c2ccc([C@@H](C)[C@@](O)(c3ccnc(Cl)c3)C(F)(F)F)c(Cl)c2)cc1 (relative stereo) [Example 36, 4-({3-Chloro-4-[2-(2-chloro-pyridin-4-yl)-3,3,3-trifluoro-2-hydroxy-1-methyl-propyl]-benzoylamino}-methyl)-benzoic acid methyl ester] | 117 |
| CC(c1ccc(Oc2ccc(CC(=O)O)cc2)cc1Cl)C(O)(c1ccnc(Cl)c1)C(F)(F)F (stereo not drawn) [Example 79, (4-{3-Chloro-4-[2-(2-chloro-pyridin-4-yl)-3,3,3-trifluoro-2-hydroxy-1-methyl-propyl]-phenoxy}-phenyl)-acetic acid] | 13.4 |

The remaining lines, values ahead:

| Ki [nM] | Structure (SMILES) |
| --- | --- |
| 2.7 | COC(=O)c1cnc(Oc2ccc([C@H](C)[C@](O)(c3cc(C)c(=O)n(C)c3)C(F)(F)F)c(Cl)c2)nc1C(F)(F)F (stereo in doubt) [Example 242, 2-{3-Chloro-4-[2-(1,5-dimethyl-6-oxo-1,6-dihydro-pyridin-3-yl)-3,3,3-trifluoro-2-hydroxy-1-methyl-propyl]-phenoxy}-4-trifluoromethyl-pyrimidine-5-carboxylic acid methyl ester] |
| 601 | Cc1cc([C@@](O)([C@@H](C)c2ccc(Oc3ccc(C(=O)O)cc3Cl)cc2Cl)C(F)(F)F)cn(C)c1=O [Example 244, 3-Chloro-4-{3-chloro-4-[(1S,2S)-2-(1,5-dimethyl-6-oxo-1,6-dihydro-pyridin-3-yl)-3,3,3-trifluoro-2-hydroxy-1-methyl-propyl]-phenoxy}-benzoic acid] |
| 0.8 | COC(=O)c1ccc(Oc2ccc([C@H](C)[C@](O)(c3cc(C)c(=O)n(C)c3)C(F)(F)F)c(Cl)c2)cc1F (stereo in doubt) [Example 203, 4-{3-Chloro-4-[2-(1,5-dimethyl-6-oxo-1,6-dihydro-pyridin-3-yl)-3,3,3-trifluoro-2-hydroxy-1-methyl-propyl]-phenoxy}-2-fluoro-benzoic acid methyl ester] |
| 2.9 | COC(=O)c1ccc(Oc2ccc([C@H](C)[C@](O)(c3cc(C)c(=O)n(C)c3)C(F)(F)F)c(Cl)c2)nc1 (relative stereo) [Example 217, 6-{3-Chloro-4-[2-(1,5-dimethyl-6-oxo-1,6-dihydro-pyridin-3-yl)-3,3,3-trifluoro-2-hydroxy-1-methyl-propyl]-phenoxy}-nicotinic acid methyl ester] |
| 45.8 | C[C@@H](c1cc(Oc2ccc(Cl)c(C(=O)O)c2)ccc1Cl)[C@](O)(c1ccc(=O)n(C)c1)C(F)(F)F (stereo in doubt) [Example 196, 2-Chloro-5-{4-chloro-3-[3,3,3-trifluoro-2-hydroxy-1-methyl-2-(1-methyl-6-oxo-1,6-dihydro-pyridin-3-yl)-propyl]-phenoxy}-benzoic acid] |
| 4.2 | Cc1cc([C@](O)([C@H](C)c2ccc(Oc3ccc(C(=O)O)c(F)c3)cc2Cl)C(F)(F)F)cn(C)c1=O [Example 249, 4-{3-Chloro-4-[(1R,2R)-2-(1,5-dimethyl-6-oxo-1,6-dihydro-pyridin-3-yl)-3,3,3-trifluoro-2-hydroxy-1-methyl-propyl]-phenoxy}-2-fluoro-benzoic acid] |
| 2.6 | COC(=O)c1ccc(-c2ccc([C@H](C)[C@](O)(c3ccc(=O)n(C)c3)C(F)(F)F)c(Cl)c2)cc1Cl [Example 168, 3,3′-Dichloro-4′-[3,3,3-trifluoro-2-hydroxy-1-methyl-2-(1-methyl-6-oxo-1,6-dihydro-pyridin-3-yl)-propyl]-propylphiphenyl-4-carboxylic acid methyl ester] |
| 1.5 | COC(=O)c1cnc(Oc2ccc([C@H](C)[C@](O)(c3cc(C)c(=O)n(C)c3)C(F)(F)F)c(Cl)c2)nc1 (relative stereo) [Example 253, 2-{3-Chloro-4-[2-(1,5-dimethyl-6-oxo-1,6-dihydro-pyridin-3-yl)-3,3,3-trifluoro-2-hydroxy-1-methyl-propyl]-phenoxy}-pyrimidine-5-carboxylic acid methyl ester] |
